“Also recorded” adds a separate entry of the source.
Tests used:
A549 cells [1] = assay: Pifithrin-α treatment of A549 cells transfected with Cas9 or Cas9-HR, resazurin viability; type: cell-based, human
Description: (§1) 20 μL of 0.15 mg/mL Resazurin solution was added to cells either plated in 96 well plates for all cell lines, which were then incubated for ˜4 hours at 37° C. Cellular toxicity was quantified using a Tecan SpectraFlour Plus plate reader (Tecan) using a 535/595 filter set. Raw data was then normalized to the mean of the untransfected controls and plotted as described.

endogenous H2B = assay: H2B-mNeon knock-in HDR quantification in K562 cells; type: cell-based, human; settings: H2B-mNeon RT, genome specific plus RT specific primers
Description: After two days, cells were fixed in 4% PFA washed in PBS, then directly imaged, with cells showing nuclear localized fluorescence counted as successful HDR events.
K562 were grown in 24 well plates with RPMI-1640 supplemented with 5% FBS until roughly 70% confluent. At that time cells were either electroporated using the mNeon system (Invitrogen) using optimized settings for K562 cells, or lipofectamine 3000 again following manufactures instructions. Cells were then returned to 24 well plates with fresh media and grown for at least two days before being used in downstream analysis.
After 2 days, cells attached to coverslips coated with 0.01% poly-1-lysine, and were fixed in 4% PFA (Thermofisher) for 15 minutes at RT. After fixation, cells were washed 3× in PBS, mounted in 50% glycerol and imaged on a Nikon Eclipse E600 with standard FITC filters. For quantification, random patches of cells (usually between 8-15 cells per image) were identified via Brightfield, then fluoresce images were taken with constant illumination and exposure time (100%, and 110 ms respectively).

A549 cells [2] = assay: Cellular toxicity / viability of transfected A549 cells (resazurin assay); type: cell-based
Description: A549 cells were chosen as they are both facile to grow and transfect, cost effective in terms of media and other reagents, and importantly have retained a functional p53 gene.
Cells were then allowed to recover for one additional day, after which viability was cells were incubated with resazurin (Millipore Sigma) for 4 hours, after which fluorescence was quantified by a plate reader (Perkin Elmer).
Unless otherwise noted, adherent cells (A549 or H1299) were seeded in 96 well plates and grown in either 50/50 F-12/DMEM or RPMI-1640 respectively, supplemented with 5% FBS and grown to roughly 70% confluency. Cells were then transfected with either Cal-Phos as described in Chen 2012 or Lipofectamine 3000 (Thermofisher). Fresh media was exchanged the next day and cellular viability was quantified on day 2.
as §1
as §1, with “described. […] Stats: All two-sided students T-test with unequal variance.” for “described.”

HBB amplicon = assay: In-vitro exonuclease assay with purified proteins; type: biochemical, human; settings: 30 nM protein, 3 nM HBB amplicon, 37° C., 60 minutes
Description: Reactions were then electrophoresed and visualized on an agarose gel. FIG. 5C illustrates quantification of exonuclease activity. Quantification of exonuclease activity assayed in FIG. 5B. 3 replicates were performed for each reaction and were quantified via FIJI (ImageJ) and then normalized to control amplicon levels.
Reactions were then electrophoresed and visualized on an agarose gel.
DNA was isolated from wildtype K562 cells, and amplified using standard Taq DNA polymerase and HBB-out-F (5′-[…]-3′ (SEQ ID NO: 125)) and HBB-out-R (5′-[…]-3′ (SEQ ID NO: 126)), Tm=56 for 35 cycles, and purified using the Qiagen PCR cleanup kit. […] The samples were then electrophoresed on a standard 1% TAE agarose gel stained with gel green.

Row | Compound | cellular viability over a dilution series (A549 cells [1]; 10 nM-10 μM Pifithrin-α, A549 cells transfected with Cas9) | effect on viability / Cas9 mediated toxicity compared to DMSO (A549 cells [1]; 10 μM Pifithrin-α, A549 cells transfected with Cas9) | effect on viability / toxicity compared to DMSO (A549 cells [1]; 10 μM Pifithrin-α, A549 cells transfected with Cas9-HR 8) | increase in cellular viability compared to DMSO (A549 cells [1]; 10 μM Pifithrin-α, A549 cells transfected with Cas9, two days) [fold] | PCR of 5′ and 3′ knock-in junctions (endogenous H2B) | cellular toxicity (A549 cells [2]; Int-G2 and Int-G3, CalPhos) | toxicity targeting G-2 rather than G-3 (A549 cells [2]; Int-G2 vs Int-G3) | reduction in cellular toxicity compared to Cas9 or Cas9+hExo1 (A549 cells [2]; targeting HBB-G3) | exonuclease activity (reduction of full length HBB amplicon) (HBB amplicon)
1 | Cc1ccc(C(=O)Cn2c3c(sc2=N)CCCC3)cc1 [Pifithrin-α] | dose dependent response in cellular viability; also recorded: decreasing levels of toxicity with increasing concentrations; also recorded: Dose dependent increases in cellular viability | reduces Cas9 mediated cellular toxicity; also recorded: statistically significant (p<0.001) increase in viability; also recorded: increase in cellular viability | does not affect cellular toxicity; also recorded: no significant change in cellular viability; also recorded: no effect | ~2 | – | – | – | – | –
2 | Cas9-HR 4: hExo1(1-352)-Cas9 fusion of FIG. 1A; E. coli codon optimized vector SEQ ID NO: 67 | – | – | – | – | Successful amplification | dramatic reduction in cellular toxicity | significantly more toxicity | greatest reduction | did not show Exonuclease activity; also recorded: no significant activity

— US20230416785A1, “NUCLEASE AND APPLICATION THEREOF” (CRISP-HR Therapeutics, Inc., priority 2020, published 2023)
